Key:
Format in all cases: in vivo
Dopamine Receptor = assay: Dopamine receptor blocking activity in the CNS: inhibition of apomorphine induced climbing in the mouse; settings: s.c. (table footnote), apomorphine 1 mg/kg s.c. induced climbing
[1] = system: vomiting response to apomorphine HCl; assay: Anti-emetic activity in the dog (apomorphine HCl induced vomiting); settings: Canis lupus familiaris, sc, 30 min before apomorphine HCl 0.1 mg/kg s.c.
Experimental: I. Anti-emetic acitivity in the dog
Compounds were administered subcutaneously 30 minutes prior to administration of a standard dose of apomorphine HCl (0.1 mg/kg subcutaneously) and the vomiting response compared to that obtained when the same animals were dosed with apomorphine HCl and vehicle only.
(§1) The tests I and II shown above for anti-emetic and CNS activity respectively were used for the comparison testing of representative Compound 1 with 4-amino-5-chloro-2-methoxy-N-(3'β-[8'-benzyl]-8-azabicyclo[3.2.1]octyl)benzamide (A'). Compound A' was chosen because of the compounds specifically disclosed in European Patent Application No. 793029978 and U.S. Pat. No. 4,273,778 it has the best anti-emetic activity and is the structurally closest compound to compound 1. Other compounds of the Examples were also submitted to tests I and II.

[2] = Therapeutic ratio for anti-emetic activity based upon CNS effects (tests I and II); settings: relative to compound A'
Source text: as §1

[3] = system: gastric motility inhibited by 6,7-ADTN; assay: Gastric motility testing in the rat: reversal of the inhibitory effect of 6,7-ADTN; settings: s.c., 10 minutes after 6,7-ADTN 1 mg/kg s.c.; conscious chronic gastric fistula rat
Experimental: III. Gastric Motility Testing in the rat
The compounds were tested for ability to reverse the inhibitory effect of 6,7-ADTN on gastric motility as recorded by an open tipped catheter in the conscious chronic gastric fistula rat. Administration of 1 mg/kg s.c. of 6,7-ADTN reduced basal gastric motor activity and this was reversed by the administration of 0.008 mg/kg s.c. of compound 1. administered 10 minutes after the 6,7-ADTN. […] For subcutaneous testing the compound was dissolved in water by the addition of tartaric acid (1/2 mole per mole of compound).

SMILES	CNS activity (ED50) (Dopamine Receptor) [mg/kg]	ED50 [1] [µg/kg]	improvement of therapeutic ratio for anti-emetic activity based upon CNS effects, compared with compound A' [2]	dose reversing the 6,7-ADTN inhibition of gastric motor activity [3] [µg/kg]
COc1cc(N)c(Cl)cc1C(=O)N[C@@H]1C[C@H]2CC[C@@H](C1)N2Cc1ccccc1 [Compound A', 4-amino-5-chloro-2-methoxy-N-(3'β-[8'-benzyl]-8-azabicyclo[3.2.1]octyl)benzamide, reference compound]	0.0029	0.5		
CCS(=O)(=O)c1cc(C(=O)N[C@@H]2C[C@H]3CC[C@@H](C2)N3Cc2ccccc2)c(OC)cc1N [Compound 2, 4-Amino-5-ethylsulphonyl-2-methoxy N-[3-β-(8-benzyl-8azabicyclo{3,2,1}octyl)]benzamide]	3.5	10		
COc1cc(N)c(S(C)(=O)=O)cc1C(=O)N[C@@H]1C[C@H]2CC[C@@H](C1)N2Cc1ccccc1 [Compound 1, 4-Amino-2-methoxy-5-methylsulphonyl-N-[3-β-(8-benzyl-8-azabicyclo[3.2.1]octyl)]benzamide]	3.5	2	more than 300 times	8
COc1cc(N)c(S(C)(=O)=O)cc1C(=O)N[C@@H]1C[C@H]2CC[C@@H](C1)N2C [Compound 3, 4-Amino-2-methoxy-5-methylsulphonyl-N-[3β-(8-methyl-8-azabicyclo[3.2.1]octyl)]benzamide]	80	500		
